Source: patent US20150307841A1, “Composition for Promoting Differentiation and Proliferation of Neural Stem Cell and Neural Precursor Cell” (priority 2014, published 2015)

System: GAD67-, VGluT1-, ChAT-positive neurons and OX42 reactive microglia in the hippocampus
Test: Immunohistochemical analysis of GAD67, VGluT1, ChAT, OX42 in hippocampus (Experimental Example 1)
Format: in vivo, rat
Method: Immunostaining was carried out using antibodies against VGluT1 (diluted 1:500, Chemicon), ChAT (1:500, Chemicon), GFAP (1:1,000, Chemicon), tyrosine hydroxylase (TH, 1:500, Chemicon) and OX42 (CD11b/c, 1:250, Serotec) as primary antibodies instead of the anti-BrdU antibodies used in (4). The other process was the same as in (4), except that incubation was performed at 37° C. for 30 minutes in 2 N HCl.
In the immunohistochemical analysis, the number of the cells immnunostained against each antibody was counted from 5 or 6 hippocampal coronal sections. For each staining analysis, every fifth cryosections of the hippocampal region of brain tissues (AP: bregma −4.5 to −4.3 mm) were taken for immunostaining. The number of the immnunostained cells was represented as an average of number of cells in the hippocampal region of one brain slice.
The number of the VGluT1- and GAD-positive cells in the brain slice samples 1 week and 4 weeks after the administration of soyasaponin I was presented per microscopic field (×400-VGluT1, ×800-GAD67) and the number of the ChAT-positive cells was presented per each hippocampal region (10-12 confocal laser microscopic fields). 5-11 animals were used per group. Western blotted membranes were analyzed using the multi-gauge, bio-imaging program on LAS-4000 Mini (Fujifilm Life Science, Stamford, Conn., USA). Densitometeric analysis of the expression ratios of VGluT1/β-actin, GAD65/67/β-actin and ChAT/β-actin was normalized to the vehicle group.

[1] = ibotenic acid injected into entorhinal cortex, no soyasaponin I
[2] = memory-deficient model rats, soyasaponin I at 5, 10, 20 mg/kg oral

Compound: N[C@H](C(=O)O)c1cc(=O)[nH]o1 [IBO, Ibotenic acid]
- ChAT-positive cells in the hippocampus relative to Sham [1]: 52.07 ± 7.38%
- GAD67-positive cells in the hippocampus relative to Sham [1]: 43.02 ± 3.72%
- VGluT1-positive cells in the hippocampus relative to Sham [1]: 72.44 ± 3.86%
- Number of ChAT-positive cells in the hippocampus [2]: 7.30±1.32 cells
- Number of GAD67-positive cells [2]: 3.81±0.63 cells per hippocampal slice
